Measurements: publication PMC9669016, “First-in-human phase Ia study of the PI3Kα inhibitor CYH33 in patients with solid tumors” (Nature Communications, 2022)

Experiment: Clinical pharmacokinetics: plasma CYH33 and I27 by LC/MS/MS
Type: in vivo, human
Protocol: The PK characteristics of CYH33 and its active metabolite I27 were evaluated after single and multiple dose administrations. PK data were obtained from 37 patients from 7 dose cohorts: 1 mg (n = 1), 5 mg (n = 1), 10 mg (n = 2), 20 mg (n = 6), 30 mg (n = 12), 40 mg (n = 13), and 60 mg (n = 2). Intensive and sparse PK sampling was performed. Prior to initiating a continuous daily treatment cycle, the first 5 patients participated in a single dose PK treatment period with a 7-day washout in order to determine the terminal-phase half-life (t1/2) of CYH33 and its active metabolite I27. Based on the single dose PK data for CYH33 of the first 5 patients at doses of 1, 5, 10 and 20 mg, the PK and metabolic characteristics of CYH33 and I27 were evaluated. Combined with the pre-specified rules in the protocol and deliberation from the SMC, subsequent patients directly entered the continuous dose phase.
Blood samples for PK evaluation were collected at: (1) during the single dose phase: on day 1 pre-dose and 0.5, 1, 2, 4, 8, 12, 24, 36, 48, and 72 h post-dose; (2) during the continuous dose phase: C1D1/Cycle 1 Day 28 pre-dose, and 0.5, 1, 2, 3, 4, 6, 8, 12, and 24 h post-dose; and C1D8/Day 15 pre-dose. Plasma concentrations of CYH33 and I27 were analyzed using a liquid chromatography-tandem mass spectrometry (LC/MS/MS) assay (Shimadzu Corporation, LC-30AD) with a lower limit of quantification (LLOQ) of 2.585 ng/mL and 1.0 ng/mL for CYH33 and I27, respectively. […] Blood samples for measuring the FBG level were collected within 30 min before dosing on C1D1, C1D15, and on the first day of subsequent treatment cycles.

[1] = CYH33, Cycle 1 Day 1, 5 mg (n = 1)
[2] = CYH33, Cycle 1 Day 1, 10 mg (n = 2)
[3] = CYH33, Cycle 1 Day 1, 20 mg (n = 5)

COC(=O)Nc1cc(C(F)(F)F)c(-c2nc(N3CCOCC3)c3cc(CN4CCN(S(C)(=O)=O)CC4)cn3n2)cn1 [CYH33, methyl (5-(6-((4-(methylsulfonyl)piperazin-1-yl)methyl)−4-morpholinopyrrolo[2,1-f][1,2,4]triazin-2-yl)−4-(trifluoromethyl)pyridin-2-yl)carbamate]
CYH33 plasma concentration, mean (C1D1, 1 mg, 1 h): 4.6 ng/mL
CYH33 plasma concentration, mean (C1D1, 1 mg, 2 h): 3.8 ng/mL
CYH33 plasma concentration, mean (C1D1, 1 mg, 4 h): 2.9 ng/mL
CYH33 plasma concentration, mean (C1D1, 1 mg, 8 h): 1.8 ng/mL
CYH33 plasma concentration, mean (C1D1, 1 mg, 12 h): 0 ng/mL
CYH33 plasma concentration, mean (C1D1, 1 mg, 36 h): 0 ng/mL
CYH33 plasma concentration, mean (C1D1, 1 mg, 48 h): 0 ng/mL
CYH33 plasma concentration, mean (C1D1, 1 mg, 72 h): 0 ng/mL
CYH33 plasma concentration, mean (C1D1, 5 mg, 1 h): 18.1 ng/mL
CYH33 plasma concentration, mean (C1D1, 5 mg, 2 h): 24.6 ng/mL
CYH33 plasma concentration, mean (C1D1, 5 mg, 4 h): 19.5 ng/mL
CYH33 plasma concentration, mean (C1D1, 5 mg, 8 h): 11.8 ng/mL
CYH33 plasma concentration, mean (C1D1, 5 mg, 12 h): 9.7 ng/mL
CYH33 plasma concentration, mean (C1D1, 5 mg, 36 h): 3.8 ng/mL
CYH33 plasma concentration, mean (C1D1, 5 mg, 48 h): 2.5 ng/mL
CYH33 plasma concentration, mean (C1D1, 10 mg, 1 h): 30.2 ng/mL
CYH33 plasma concentration, mean (C1D1, 10 mg, 2 h): 35.3 ng/mL
CYH33 plasma concentration, mean (C1D1, 10 mg, 8 h): 30.2 ng/mL
CYH33 plasma concentration, mean (C1D1, 10 mg, 12 h): 23.9 ng/mL
CYH33 plasma concentration, mean (C1D1, 10 mg, 36 h): 9.3 ng/mL
CYH33 plasma concentration, mean (C1D1, 10 mg, 48 h): 6.8 ng/mL
CYH33 plasma concentration, mean (C1D1, 20 mg, 0.5 h, in ng/mL): 26.7325
CYH33 plasma concentration, mean (C1D1, 20 mg, 1 h, in ng/mL): 44.192
CYH33 plasma concentration, mean (C1D1, 20 mg, 2 h, in ng/mL): 54.18
CYH33 plasma concentration, mean (C1D1, 20 mg, 3 h, in ng/mL): 46.425
CYH33 plasma concentration, mean (C1D1, 20 mg, 6 h, in ng/mL): 32.9075
CYH33 plasma concentration, mean (C1D1, 20 mg, 8 h, in ng/mL): 36.04
CYH33 plasma concentration, mean (C1D1, 20 mg, 36 h): 23.6 ng/mL
CYH33 plasma concentration, mean (C1D1, 20 mg, 48 h): 15.8 ng/mL
CYH33 plasma concentration, mean (C1D1, 30 mg, 0.5 h, in ng/mL): 24.6458
CYH33 plasma concentration, mean (C1D1, 30 mg, 1 h, in ng/mL): 57.5417
CYH33 plasma concentration, mean (C1D1, 30 mg, 2 h, in ng/mL): 79.1167
CYH33 plasma concentration, mean (C1D1, 30 mg, 3 h, in ng/mL): 79.1917
CYH33 plasma concentration, mean (C1D1, 30 mg, 6 h, in ng/mL): 64.9583
CYH33 plasma concentration, mean (C1D1, 30 mg, 8 h, in ng/mL): 60.1583
CYH33 plasma concentration, mean (C1D1, 30 mg, 24 h, in ng/mL): 43.65
CYH33 plasma concentration, mean (C1D1, 30 mg, 48 h): 42.5 ng/mL
CYH33 plasma concentration, mean (C1D1, 40 mg, 1 h, in ng/mL): 78.4333
CYH33 plasma concentration, mean (C1D1, 40 mg, 2 h): 87 ng/mL
CYH33 plasma concentration, mean (C1D1, 40 mg, 3 h): 88.2 ng/mL
CYH33 plasma concentration, mean (C1D1, 40 mg, 4 h, in ng/mL): 78.0667
CYH33 plasma concentration, mean (C1D1, 40 mg, 6 h, in ng/mL): 62.5333
CYH33 plasma concentration, mean (C1D1, 40 mg, 8 h, in ng/mL): 57.6333
CYH33 plasma concentration, mean (C1D1, 40 mg, 12 h, in ng/mL): 47.8667
CYH33 plasma concentration, mean (C1D1, 40 mg, 48 h): 45.2 ng/mL
CYH33 plasma concentration, mean (C1D1, 60 mg, 1 h): 55.6 ng/mL
CYH33 plasma concentration, mean (C1D1, 60 mg, 2 h, in ng/mL): 86.475
CYH33 plasma concentration, mean (C1D1, 60 mg, 3 h, in ng/mL): 95.325
CYH33 plasma concentration, mean (C1D1, 60 mg, 4 h, in ng/mL): 109.05
CYH33 plasma concentration, mean (C1D1, 60 mg, 6 h, in ng/mL): 98.025
CYH33 plasma concentration, mean (C1D1, 60 mg, 8 h): 96.2 ng/mL
CYH33 plasma concentration, mean (C1D1, 60 mg, 12 h, in ng/mL): 78.575
CYH33 plasma concentration, mean (C1D1, 60 mg, 48 h): 61.4 ng/mL
CYH33 plasma concentration, mean (C1D28, 1 mg, 0.5 h): 2.38 ng/mL
CYH33 plasma concentration, mean (C1D28, 1 mg, 1 h): 4.57 ng/mL
CYH33 plasma concentration, mean (C1D28, 1 mg, 2 h): 4.43 ng/mL
CYH33 plasma concentration, mean (C1D28, 1 mg, 8 h): 2.84 ng/mL
CYH33 plasma concentration, mean (C1D28, 1 mg, 12 h): 1.9 ng/mL
CYH33 plasma concentration, mean (C1D28, 1 mg, 24 h): 0 ng/mL
CYH33 plasma concentration, mean (C1D28, 5 mg, 0.5 h): 48.6 ng/mL
CYH33 plasma concentration, mean (C1D28, 5 mg, 1 h): 56.2 ng/mL
CYH33 plasma concentration, mean (C1D28, 5 mg, 2 h): 43 ng/mL
CYH33 plasma concentration, mean (C1D28, 5 mg, 8 h): 23.5 ng/mL
CYH33 plasma concentration, mean (C1D28, 5 mg, 12 h): 20 ng/mL
CYH33 plasma concentration, mean (C1D28, 5 mg, 24 h): 15.1 ng/mL
CYH33 plasma concentration, mean (C1D28, 10 mg, 0.5 h): 49.9 ng/mL
CYH33 plasma concentration, mean (C1D28, 10 mg, 1 h): 61.4 ng/mL
CYH33 plasma concentration, mean (C1D28, 10 mg, 2 h): 77.5 ng/mL
CYH33 plasma concentration, mean (C1D28, 10 mg, 8 h): 55.7 ng/mL
CYH33 plasma concentration, mean (C1D28, 10 mg, 12 h): 47.9 ng/mL
CYH33 plasma concentration, mean (C1D28, 10 mg, 24 h): 35.4 ng/mL
CYH33 plasma concentration, mean (C1D28, 20 mg, 0.5 h, in ng/mL): 110.84
CYH33 plasma concentration, mean (C1D28, 20 mg, 1 h): 134 ng/mL
CYH33 plasma concentration, mean (C1D28, 20 mg, 2 h, in ng/mL): 135.8
CYH33 plasma concentration, mean (C1D28, 20 mg, 6 h, in ng/mL): 117.175
CYH33 plasma concentration, mean (C1D28, 20 mg, 8 h, in ng/mL): 120.72
CYH33 plasma concentration, mean (C1D28, 20 mg, 12 h, in ng/mL): 106.84
CYH33 plasma concentration, mean (C1D28, 20 mg, 24 h, in ng/mL): 83.68
CYH33 plasma concentration, mean (C1D28, 30 mg, 0.5 h, in ng/mL): 149.367
CYH33 plasma concentration, mean (C1D28, 30 mg, 1 h, in ng/mL): 154.011
CYH33 plasma concentration, mean (C1D28, 30 mg, 2 h, in ng/mL): 172.178
CYH33 plasma concentration, mean (C1D28, 30 mg, 6 h, in ng/mL): 163.956
CYH33 plasma concentration, mean (C1D28, 30 mg, 8 h, in ng/mL): 162.122
CYH33 plasma concentration, mean (C1D28, 30 mg, 12 h, in ng/mL): 143.189
CYH33 plasma concentration, mean (C1D28, 40 mg, 0.5 h, in ng/mL): 167.057
CYH33 plasma concentration, mean (C1D28, 40 mg, 1 h, in ng/mL): 191.129
CYH33 plasma concentration, mean (C1D28, 40 mg, 2 h, in ng/mL): 206.714
CYH33 plasma concentration, mean (C1D28, 40 mg, 3 h, in ng/mL): 262.333
CYH33 plasma concentration, mean (C1D28, 40 mg, 6 h, in ng/mL): 245.333
CYH33 plasma concentration, mean (C1D28, 40 mg, 8 h, in ng/mL): 166.029
CYH33 plasma concentration, mean (C1D28, 40 mg, 12 h, in ng/mL): 158.629
CYH33 plasma concentration, mean (C1D28, 40 mg, 24 h, in ng/mL): 134.657
CYH33 plasma concentration, mean (C1D28, 60 mg, 0.5 h): 155 ng/mL
CYH33 plasma concentration, mean (C1D28, 60 mg, 1 h): 184 ng/mL
CYH33 plasma concentration, mean (C1D28, 60 mg, 2 h): 198 ng/mL
CYH33 plasma concentration, mean (C1D28, 60 mg, 3 h): 193 ng/mL
CYH33 plasma concentration, mean (C1D28, 60 mg, 6 h): 205 ng/mL
CYH33 plasma concentration, mean (C1D28, 60 mg, 8 h): 181 ng/mL
CYH33 plasma concentration, mean (C1D28, 60 mg, 12 h): 163 ng/mL
CYH33 plasma concentration, mean (C1D28, 60 mg, 24 h): 135 ng/mL
CL/F, mean (CV%) [1]: 11.6 L/h
V/F, mean (CV%) [1]: 322.8 L
CL/F, mean (CV%) [2]: 9.2 (11) L/h
V/F, mean (CV%) [2]: 263.2 (24) L
CL/F, mean (CV%) [3]: 9.1 L/h
V/F, mean (CV%) [3]: 274.2 L
CLss/F, mean (CYH33, Cycle 1 Day 28, 1 mg (n=1)): 19.4 L/h
